According to publication PMC12216609, “Inhibitors of eIF1A-ribosome interaction unveil uORF-dependent regulation of translation initiation and antitumor and antiviral effects” (The EMBO Journal, 2025):
Values joined by “and” are separate entries in the source; they are usually repeats but may differ in a detail not shown here. Identical values can stand only once.

Tests used:
[1] = test system: uORF-bearing 5'UTR firefly reporters in HEK293T cells; assay: uORF reinitiation / leaky scanning firefly reporters; conditions: for 95nt from uORF to main ORF experiment, minus 95nt, average (DMSO = 1): minus 95nt reporter; for averages of FF vs RL / FF vs RL / averages of FF vs RL 2 / FF vs RL 2: 95nt experiment; for averages of FF vs RL 2 / FF vs RL 2: block FF-2 (c113)
Description: (M) The reference and uORF-bearing reporters were transfected to HEK293T cells together with RL, which served to normalize translation efficiency. The reporter activities are represented as firefly vs RL; n ≥3 independent biological replicates, error bars represent SEM. *P < 0.05, **P < 0.01, Student t test. (N) Firefly Reporters (J) were transfected to HEK293T cells together with normalizing RL. […] Results are represented as firefly vs. RL normalized to DMSO in each biological replicate; n = 4, error bars represent SEM. *P < 0.05, **P < 0.01, Student t test.
In the first and second, we inserted an out-of-frame uAUG 46 or 95 nucleotides before the main ORF, respectively, followed by a downstream stop codon generating an uORF of 10 amino acids. In these constructs, the translation from the main ORF could be either by reinitiation or leaky scanning. In the third construct, this out of frame uAUG lacks a stop codon, causing initiation from the main ORF to exclusively occur via leaky scanning (Fig. 4L). These reporters were transfected into HEK293T cells together with RL luciferase reporter for normalizing transfection efficiency. […] We next examined these reporters in the presence of 1Ais.

[2] = test system: cap-proximal AUG GFP reporter in HEK293T cells; type: cell-based; conditions: GFP WB densitometry; 20 µM overnight; dmso 0.965946
Excerpt: Translation from an AUG preceded by a very short 5'UTR (less than 30 nt) is usually inefficient and frequently bypassed, resulting in initiation from a downstream AUG, a phenomenon known as leaky scanning. […] To examine the impact of 1Ais on short 5'UTR initiation, we used a GFP reporter gene containing an AUG located 16 nt downstream from the 5' end followed by a second in-frame downstream AUG (Fig. 1F; Appendix Fig. S1B). Cells were transfected with this GFP reporter gene followed by exposure to DMSO (vehicle) and 1Ais. Initiations from upstream (US) or downstream (DS) AUGs were determined by western blot (WB) with anti-GFP antibodies and the ratio between the US and DS AUG was determined.
For the analysis of translation from very short 5'UTR and Leaky scanning, HEK293T cells were transfected with a GFP (20 ng/well) reporter gene driven by a cap-proximal and downstream AUGs (Elfakess et al, [2011]) together with a luciferase reporter gene (100 ng/well) as normalizing control and treated with 20 µM of 1Ais as described above. GFP levels were determined by Western blot (WB) (GFP antibody, Abcam #ab290) and quantified by densitometry (ImageJ) and normalized to the measured luciferase activity.
HEK293T cells were transfected with the GFP reporter gene schematically shown on the top. The first
AUG is […] from the 5’ end and the downstream AUG is in the same frame. Six hours after transfection, cells were treated with 1Ais. After overnight exposure to 1Ais, GFP expression was analyzed by WB using anti -GFP antibodies.
US/DS ratio was determined by densitometry and represents the long protein expression (upstream AUG, US) vs the […]
biological replicates. (C-D) Analysis of reporter genes mRNA levels after 1Ais treatment.

[3] = test system: CUG/GUG vs AUG start codon luciferase reporters in HEK293T cells; assay: Near-cognate AUG starting codon fidelity reporter assay (GUG, CUG vs AUG); type: cell-based; conditions: for GUG vs AUG data (%) / GUG vs AUG (%) Average: compound at 20uM; for GUG vs AUG data (%): individual repeat; for GUG vs AUG (%) Average: summary average of repeats, DMSO control average […]; for CUG vs AUG (%): CUG start codon reporter relative to AUG reporter (AUG = 100); for CUG vs AUG (%) / GUG vs AUG (%): single-experiment calculation; for GUG vs AUG (%): GUG start codon reporter relative to AUG reporter (AUG = 100)
Description: We next considered the importance of eIF1A in controlling start codon fidelity in yeast and mammalian cells (Martin-Marcos et al, [2011]; Martin-Marcos et al, [2017]; Sehrawat et al, [2019]; She et al, [2023]) and tested how inhibition of eIF1A by 1Ais affects the initiation from near-cognate AUG. The effect of 1Ais was analyzed using firefly luciferase reporters bearing either AUG (control), CUG, or GUG as the exclusive translation initiation sites. Co-transfected GFP reporter served as an internal control for transfection efficiency.
For the near-cognate AUG Starting codon fidelity reporter assay, HEK293T cells were transfected with 100 ng of the previously described luciferase reporter constructs driven either by AUG, CUG, and GUG (Tang et al, [2017]) together with GFP expressing plasmid (20 ng) as normalizing control. Luciferase and GFP levels were determined as described above.
Appendix Figure S1: (A) HEK293T cells were transfected with Luciferase reporter genes with either CUG or AUG as their exclusive starting codon. 6 hours after transfection, cells were exposed to 1Ais, and the luminescence from all constructs was measured after overnight incubation. Bars represent the ratio between luminescence from the AUG starting codon and CUG after normalization with co-transfected GFP; Error bars represent SEM, * denotes p<0.05 (T-test comparing to DMSO control), n=≥4 independent biological replicates.

[4] = target: T1, eIF1A-RPS10 interaction (Homo sapiens, UniProt P46783+P47813); assay: Split-Renilla luciferase eIF1A-RPS10 interaction screen, dose-response; type: biochemical; conditions: Appendix Table S1; read-out: IC50 from the split RL screen
T1 construct: made in house; host or cells: E. coli BL21 (PRSFduet); unpurified lysate supernatant
Description: While knockdown (KD) studies of eIF1A provided valuable insights into its role in mammalian cell translation (Sehrawat et al, [2019]), this approach presents several limitations. First, it fails to elucidate the functional significance of the opposing functions of eIF1A N- and C-terminal tails with respect to scanning and start codon fidelity. Second, the extended duration required for achieving efficient knockdown, 48–72 h, impairs our ability to differentiate between direct and indirect effects. To overcome these constraints, we set out to develop small-molecule inhibitors targeting eIF1A. Guided by structural and biochemical studies showing eIF1A binding to the small ribosomal subunit at the A-site and interacting directly with RPS10 through its N-terminal tail (Haimov et al, [2017]; Passmore et al, [2007]; Sehrawat et al, [2019]), our approach focused on disrupting the interaction between eIF1A and RPS10. […] The interaction between eIF1A and RPS10 brings the two parts together, leading to the reconstitution of the enzymatic activity (Haimov et al, [2017]). In this system, the spatial arrangement of the two RL parts is critical for the enzymatic activity, making it sensitive not only to direct interference with the interacting proteins but also to changes in the conformation of the fused proteins. In the eIF1A-RPS10 split-RL pair, the C-terminus of eIF1A is fused to N-RL (Fig. 1A), in order to maintain the NTT accessible to RPS10 binding. This pair was cloned and expressed in bacteria as recombinant proteins and used to screen a library of ~50,000 small molecules from diverse sources (Ashkenazi et al, [2017]).
eIF1A-ΔC-Renilla and RPS10-ΔN-Renilla were transformed into BL21 E. coli by heat shock transformation. A bacterial starter of 5 ml LB was incubated overnight at 37 °C and transferred into 1 L LB for incubation at 37 °C until OD ~ 0.5–0.7. Next, protein expression was induced with 0.5 mM IPTG, and bacterial cells were incubated overnight at 16 °C. Bacterial cell pellet was collected after centrifugation (3000 RPM, 15 min), resuspended in 20 ml TKE buffer (Tris 10 mM, KCl 100 mM, EDTA 0.1 mM), sonicated (bath sonicator, 24 cycles of 30 s) and centrifuged again (15000 RPM, 30 min). Supernatants were collected, analyzed for RL activity, and then used for high throughput drug screen (HTS) at the Weizmann G-INCPM HTS unit as described (Ashkenazi et al, [2017]). In addition to the standard controls of this protocol, the two parts of the split RL, without eIF1A or RPS10, were tested as controls. Selected compounds were purchased from Sigma-Aldrich and Enamine. Compound powders were resuspended in DMSO for a final concentration of 10 mM and stored at −20 °C.

[5] = test system: IRF7 5'UTR firefly luciferase reporter in HEK293T cells; conditions: for LONG (summary - All), normalized to DMSO: Long reporter; for LONG (summary - All), normalized to DMSO / SHORT (summary - All), normalized to DMSO / average ( long vs short ratio): 20 µM; for LONG (summary - All), normalized to DMSO / SHORT (summary - All), normalized to DMSO: individual replicates, outliers excluded, DMSO = 1; for SHORT (summary - All), normalized to DMSO: Short reporter; for average ( long vs short ratio): summary - All;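 as to all read-outs here: luciferase signal corrected by a co-transfected GFP reporter for transfection efficiency, read after overnight compound exposure, with Long and Short reporters differing in 5'UTR length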
[6] = compound at 20uM (summary head)

T1 sequence (P47813 whole entry, one chain of several): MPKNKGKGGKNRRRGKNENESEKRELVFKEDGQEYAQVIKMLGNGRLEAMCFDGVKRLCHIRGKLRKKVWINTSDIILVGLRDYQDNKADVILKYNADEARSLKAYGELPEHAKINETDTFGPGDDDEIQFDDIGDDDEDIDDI

## O=C(COc1ccccc1[N+](=O)[O-])NCc1ccc(-c2ccc(Br)cc2)o1 [1A-4700]
[1]; 95nt from uORF to main ORF experiment summary, experiment 240919, reporter minus46, DMSO = 1
  firefly/Renilla normalized to DMSO, minus46 reporter: 0.3368 and 0.3707
[1]; 95nt from uORF to main ORF experiment summary, experiment 240919, reporter minus 95nt, DMSO = 1
  firefly/Renilla normalized to DMSO, minus 95nt reporter: 1.123 and 1.106
[1]; 95nt from uORF to main ORF experiment summary, experiment 240919, reporter ref, DMSO = 1
  firefly/Renilla normalized to DMSO, ref reporter: 0.8256 and 0.6094
[1]; minus46 reporter
  95nt from uORF to main ORF experiment, minus46, average (DMSO = 1): 0.3537
[1]
  95nt from uORF to main ORF experiment, minus 95nt, average (DMSO = 1): 1.115
[1]; ref reporter
  95nt from uORF to main ORF experiment, ref, average (DMSO = 1): 0.7175

## O=C1c2ccccc2NC(c2cc(O)c(O)c(Cl)c2)N1c1ccccc1 (stereo not drawn) [1A-8214]
[1]; block FF-1 (c104), reporter minus46, DMSO 0.0248618
  averages of FF vs RL: 0.02612
[1]; block FF-1 (c104), reporter minus 46, DMSO 2.74E-02, 2.23E-02
  FF vs RL: 2.94E-02 and 2.28E-02
[1]; block FF-1 (c104), reporter minus 46 plus 50, DMSO 2.94E-02, 2.09E-02
  FF vs RL: 1.20E-02 and 1.67E-02
[1]; block FF-1 (c104), reporter minus 95, DMSO 0.0251627
  averages of FF vs RL: 0.01437
[1]; block FF-1 (c104), reporter ref, DMSO 0.0298915
  averages of FF vs RL: 0.04961
[1]; block FF-1 (c104), reporter reference, DMSO 2.79E-02, 3.19E-02
  FF vs RL: 6.51E-02 and 3.41E-02
[1]; block FF-1 (c131), reporter minus 46, DMSO 0.17626, 0.185518
  FF vs RL: 0.2074 and 0.2118
[1]; block FF-1 (c131), reporter minus46, DMSO 0.180889
  averages of FF vs RL: 0.2096
[1]; block FF-1 (c131), reporter minus 46 plus 50, DMSO 0.437858, 0.481275
  FF vs RL: 0.464 and 0.5005
[1]; block FF-1 (c131), reporter minus 95, DMSO 0.459566
  averages of FF vs RL: 0.4822
[1]; block FF-1 (c131), reporter ref, DMSO 0.345569
  averages of FF vs RL: 0.2779
[1]; block FF-1 (c131), reporter reference, DMSO 0.39984, 0.291299
  FF vs RL: 0.281 and 0.2748
[1]; reporter minus46, DMSO 0.0506669
  averages of FF vs RL 2: 0.04195
[1]; reporter minus 46, DMSO 3.43E-02, 5.07E-02
  FF vs RL 2: 4.79E-02 and 3.60E-02
[1]; reporter minus 46 plus 50, DMSO 3.05E-02, 1.38E-02
  FF vs RL 2: 1.96E-02 and 1.61E-02
[1]; reporter minus 95, DMSO 0.0221428
  averages of FF vs RL 2: 0.01783
[1]; reporter ref, DMSO 0.0383109
  averages of FF vs RL 2: 0.05624
[1]; reporter reference, DMSO 3.69E-02, 3.97E-02
  FF vs RL 2: 6.80E-02 and 4.45E-02
[1]; minus46 reporter, 95nt from uORF to main ORF experiment, Figure 4N source data, replicate experiments, DMSO = 1
  reporter activity norm to DMSO, minus46: 0.8043 and 1.051 and 0.8279
[1]; minus46 reporter
  95nt from uORF to main ORF experiment, minus46, average (DMSO = 1): 0.8942
[1]; minus 95 (nt) reporter, 95nt from uORF to main ORF experiment, Figure 4N source data, replicate experiments, DMSO = 1
  reporter activity norm to DMSO, minus 95: 1.049 and 0.5709 and 0.8051
[1]
  95nt from uORF to main ORF experiment, minus 95nt, average (DMSO = 1): 0.8085
[1]; ref reporter, 95nt from uORF to main ORF experiment, Figure 4N source data, replicate experiments, DMSO = 1
  reporter activity norm to DMSO, ref: 1.159 and 1.66 and 1.468
[1]; ref reporter
  95nt from uORF to main ORF experiment, ref, average (DMSO = 1): 1.429

## NS(=O)(=O)c1cccc(-c2ccc(C3Nc4ccccc4-c4nc5ccccc5n43)o2)c1 (stereo not drawn) [1Ai-0050]
[2]
  US/DS ratio, average: 1.064
[3]
  GUG vs AUG data (%): 2.02% and 1.27% and 1.28% and 1.15%
  GUG vs AUG (%) Average: 1.43%
[4]
  IC50: 26 µM
[5]
  LONG (summary - All), normalized to DMSO: 1.25 and 0.94 and 0.54 and 1.63
  SHORT (summary - All), normalized to DMSO: 0.72 and 0.91
  average ( long vs short ratio): 1.337

## CNc1nc(-c2cc(C)n(C)c2C)cs1 [1Ai-0153]
[3]
  GUG vs AUG data (%): 1.78% and 1.33% and 1.95% and 1.92%
  GUG vs AUG (%) Average: 1.74%
[4]
  IC50: 27 µM
[5]
  LONG (summary - All), normalized to DMSO: 0.73 and 0.87 and 1.53 and 0.96 and 1.14
  SHORT (summary - All), normalized to DMSO: 0.72 and 0.98 and 1.54 and 1.66 and 1.69 and 1.65
  average ( long vs short ratio): 0.762
[5]; compound at 20 µM, left data block (Long), source data of Fig 1C
  Long 5'UTR reporter luciferase activity, normalized to DMSO (=1), single replicates: 0.734 and 0.8747 and 1.529 and 0.9608 and 2.673 and 1.141

## CNc1nc(-c2cc(C)n(C)c2C)cs1 [compound 153]
[3]; [6]
  CUG vs AUG (%): 5.937%
  GUG vs AUG (%): 1.586%

## O=C(Nc1nc(-c2c[nH]c3ccccc23)cs1)c1cc(=O)[nH]c2ccccc12 [compound 403]
[3]; compound at 5uM (summary head)
  CUG vs AUG (%): 8.469%
  GUG vs AUG (%): 1.79%
